Experimental data as given in patent publication US6620796B1, “Combinatorial library synthesis and pharmaceutically active compounds produced thereby” (Micrologix Biotech Inc., priority 1999, dated 2003).
Read-outs that look alike come from different tables or passages of the source.

Columns and labels:
Assay type in all cases: cell-based
[1] = Toxicity analysis by neutral red dye uptake in 2.2.15 cells; settings: human, neutral red dye uptake
Procedure: (§1) Cells for toxicity analyses were cultured and treated with four concentrations of the test compound. Uptake of neutral red dye was used to determine the relative level of toxicity 24 hours following the last treatment. The absorbance of internalized dye at 510 nm (A510 ) was used for the quantitative analysis. The percentage of dye uptake in the control (untreated) cell cultures was 100±3.

2.2.15 cells = assay: as above
Procedure: as §1

hepatits B virus (HBV) = assay: Inhibition of HBV: extracellular virion HBV DNA in 2.2.15 cell cultures; settings: for HBV Virion DNA Levels at indicated Drug Concentration: untreated control 114±16 pg/ml
Procedure: Briefly, confluent 2.2.15 cell cultures infected with an HBV strain were treated with 9 consecutive daily doses of four concentrations of test compound. Extracellular virion HBV DNA levels were followed 24 hours after the last treatment. The level of HBV virion DNA in the 24 control (untreated) cultures in these experiments was 114±16 pg/ml culture medium.

[2] = HBV replication, 2.2.15 cells, 9 consecutive daily doses, virion DNA 24 hours after last treatment, read-out: EC50
[3] = HBV replication, 2.2.15 cells, 9 consecutive daily doses, virion DNA 24 hours after last treatment, read-out: EC90

C=C(C)[C@@H]1CC=C(COP(=O)(S)OC[C@H]2O[C@@H](n3cnc4c(N)ncnc43)C[C@@H]2O)CC1 (stereo partly drawn) [Nucleoside W198-24]
CC50 [1]: > 300 µM | Neutral Red Dye Uptake at Indicated Drug Concentration (2.2.15 cells; 10 μM): 100 ± 1 % of control | Neutral Red Dye Uptake at Indicated Drug Concentration (2.2.15 cells; 30 μM): 102 ± 2 % of control | Neutral Red Dye Uptake at Indicated Drug Concentration (2.2.15 cells; 100 μM): 103 ± 1 % of control | Neutral Red Dye Uptake at Indicated Drug Concentration (2.2.15 cells; 300 μM): 102 ± 1 % of control | HBV Virion DNA Levels at indicated Drug Concentration (hepatits B virus (HBV); 0.01 μM, 2.2.15 cells): 140 ± 15 pg/ml culture | HBV Virion DNA Levels at indicated Drug Concentration (hepatits B virus (HBV); 0.1 μM, 2.2.15 cells): 133 ± 12 pg/ml culture | HBV Virion DNA Levels at indicated Drug Concentration (hepatits B virus (HBV); 1.0 μM, 2.2.15 cells): 149 ± 25 pg/ml culture | HBV Virion DNA Levels at indicated Drug Concentration (hepatits B virus (HBV); 10 μM, 2.2.15 cells): 62 ± 3 pg/ml culture | Selectivity Index (CC50/EC90) (hepatits B virus (HBV); HBV replication, 2.2.15 cells): >7.7 | EC50 (hepatits B virus (HBV); [2]): 12 ± 1.2 µM | EC90 (hepatits B virus (HBV); [3]): 39 ± 4.1 µM

C=C(C)CC/C=C/COP(=O)(S)OC[C@H]1O[C@@H](n2cnc3c(N)ncnc32)C[C@@H]1O (stereo partly drawn) [Nucleoside W198-10]
CC50 [1]: > 300 µM | Neutral Red Dye Uptake at Indicated Drug Concentration (2.2.15 cells; 10 μM): 100 ± 1 % of control | Neutral Red Dye Uptake at Indicated Drug Concentration (2.2.15 cells; 30 μM): 102 ± 2 % of control | Neutral Red Dye Uptake at Indicated Drug Concentration (2.2.15 cells; 100 μM): 99 ± 1 % of control | Neutral Red Dye Uptake at Indicated Drug Concentration (2.2.15 cells; 300 μM): 98 ± 1 % of control | HBV Virion DNA Levels at indicated Drug Concentration (hepatits B virus (HBV); 0.01 μM, 2.2.15 cells): 127 ± 10 pg/ml culture | HBV Virion DNA Levels at indicated Drug Concentration (hepatits B virus (HBV); 0.1 μM, 2.2.15 cells): 121 ± 10 pg/ml culture | HBV Virion DNA Levels at indicated Drug Concentration (hepatits B virus (HBV); 1.0 μM, 2.2.15 cells): 139 ± 10 pg/ml culture | HBV Virion DNA Levels at indicated Drug Concentration (hepatits B virus (HBV); 10 μM, 2.2.15 cells): 46 ± 2 pg/ml culture | EC50 (hepatits B virus (HBV); 24 h): 7.7 ± 0.9 µM | EC90 (hepatits B virus (HBV); 24 h): 24 ± 0.8 µM | Selectivity Index (CC50/EC90) (hepatits B virus (HBV); HBV replication, 2.2.15 cells): >13

Nc1ncnc2c1ncn2[C@H]1C[C@H](O)[C@@H](COP(=O)(S)OCc2ccc3ccccc3c2)O1 (stereo partly drawn) [Nucleoside W198-22]
CC50 [1]: > 300 µM | Neutral Red Dye Uptake at Indicated Drug Concentration (2.2.15 cells; 10 μM): 99 ± 2 % of control | Neutral Red Dye Uptake at Indicated Drug Concentration (2.2.15 cells; 30 μM): 101 ± 3 % of control | Neutral Red Dye Uptake at Indicated Drug Concentration (2.2.15 cells; 100 μM): 102 ± 2 % of control | Neutral Red Dye Uptake at Indicated Drug Concentration (2.2.15 cells; 300 μM): 103 ± 2 % of control | HBV Virion DNA Levels at indicated Drug Concentration (hepatits B virus (HBV); 0.01 μM, 2.2.15 cells): 129 ± 13 pg/ml culture | HBV Virion DNA Levels at indicated Drug Concentration (hepatits B virus (HBV); 0.1 μM, 2.2.15 cells): 122 ± 13 pg/ml culture | HBV Virion DNA Levels at indicated Drug Concentration (hepatits B virus (HBV); 1.0 μM, 2.2.15 cells): 152 ± 11 pg/ml culture | HBV Virion DNA Levels at indicated Drug Concentration (hepatits B virus (HBV); 10 μM, 2.2.15 cells): 59 ± 2 pg/ml culture | Selectivity Index (CC50/EC90) (hepatits B virus (HBV); HBV replication, 2.2.15 cells): >9.4 | EC50 (hepatits B virus (HBV); [2]): 10 ± 1.1 µM | EC90 (hepatits B virus (HBV); [3]): 32 ± 3.2 µM

C/C=C(/COP(=O)(S)OC[C@H]1O[C@@H](n2cnc3c(N)ncnc32)C[C@@H]1O)c1ccccc1 (stereo partly drawn) [Nucleoside W198-21]
CC50 [1]: > 300 µM | Neutral Red Dye Uptake at Indicated Drug Concentration (2.2.15 cells; 10 μM): 99 ± 3 % of control | Neutral Red Dye Uptake at Indicated Drug Concentration (2.2.15 cells; 30 μM): 99 ± 1 % of control | Neutral Red Dye Uptake at Indicated Drug Concentration (2.2.15 cells; 100 μM): 100 ± 1 % of control | Neutral Red Dye Uptake at Indicated Drug Concentration (2.2.15 cells; 300 μM): 100 ± 2 % of control | HBV Virion DNA Levels at indicated Drug Concentration (hepatits B virus (HBV); 0.01 μM, 2.2.15 cells): 137 ± 14 pg/ml culture | HBV Virion DNA Levels at indicated Drug Concentration (hepatits B virus (HBV); 0.1 μM, 2.2.15 cells): 121 ± 13 pg/ml culture | HBV Virion DNA Levels at indicated Drug Concentration (hepatits B virus (HBV); 1.0 μM, 2.2.15 cells): 117 ± 12 pg/ml culture | HBV Virion DNA Levels at indicated Drug Concentration (hepatits B virus (HBV); 10 μM, 2.2.15 cells): 35 ± 4 pg/ml culture | Selectivity Index (CC50/EC90) (hepatits B virus (HBV); HBV replication, 2.2.15 cells): >16 | EC50 (hepatits B virus (HBV); [2]): 5.3 ± 0.6 µM | EC90 (hepatits B virus (HBV); [3]): 19 ± 2.1 µM
